# Results published in PubChem BioAssay (NCI).
#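 Five concentrations, 48 hours, 96-well plates. TGI denotes the concentration required for complete inhibition of growth.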
# Columns and labels:
# Assay in all cases: NCI tumour cell line growth inhibition, 48 h
# [1] = tested on: A549 NSCLC
# [2] = tested on: ACHN renal
# [3] = tested on: CCRF-CEM leukemia
# [4] = tested on: COLO 205 colon
# [5] = tested on: DU-145 prostate
# [6] = tested on: HL-60(TB) leukemia
# [7] = tested on: HOP-62 NSCLC
# [8] = tested on: HOP-92 NSCLC
# [9] = tested on: HT29 colon
# [10] = tested on: MOLT-4 leukemia
# [11] = tested on: NCI-H226 lung
# [12] = tested on: OVCAR-3 ovarian
# [13] = tested on: PC-3 prostate
# [14] = tested on: RXF 393 renal
# [15] = tested on: SK-OV-3 ovarian
# [16] = tested on: SW-620 colon
# [17] = tested on: U251 CNS
# [18] = tested on: UACC-62 melanoma
# [19] = tested on: UO-31 renal
# [20] = tested on: RPMI-8226 leukemia
structure (smiles),measurement,setting,value
O=C(O)CCC(NC(=O)c1ccc(OCc2nc3cc(C(F)(F)F)ccc3nc2-c2ccccc2)cc1)C(=O)O (stereo not drawn),TGI,[1],> 100 µM
same,TGI,[2],> 100 µM
same,TGI,[3],> 100 µM
same,TGI,[4],> 100 µM
same,TGI,[5],> 100 µM
same,TGI,[6],> 100 µM
same,TGI,[7],> 100 µM
same,TGI,[8],> 100 µM
same,TGI,[9],> 100 µM
same,TGI,[10],> 100 µM
same,TGI,[11],> 100 µM
same,TGI,[12],> 100 µM
same,TGI,[13],> 100 µM
same,TGI,[14],> 100 µM
same,TGI,[15],> 100 µM
same,TGI,[16],> 100 µM
same,TGI,[17],> 100 µM
same,TGI,[18],> 100 µM
same,TGI,[19],> 100 µM
N#CC(C#N)=C1C(=Cc2ccc(OCCCCCCCCCCSSCCCCCCCCCCOc3ccc(C=C4C(=C(C#N)C#N)c5ccccc5C4=C(C#N)C#N)cc3)cc2)C(=C(C#N)C#N)c2ccccc21,TGI,[1],31 µM
same,TGI,[2],> 100 µM
same,TGI,[5],47.7 µM
same,TGI,[6],2.36 µM
same,TGI,[7],47.6 µM
same,TGI,[8],34.9 µM
same,TGI,[9],34.1 µM
same,TGI,[10],80 µM
same,TGI,[11],63.6 µM
same,TGI,[12],89 µM
same,TGI,[13],47.8 µM
same,TGI,[20],> 100 µM
same,TGI,[14],67.2 µM
same,TGI,[16],52.1 µM
same,TGI,[17],46.8 µM
same,TGI,[19],40.2 µM
CCOC(=O)c1c(SC(=O)c2ccc(C(C)(C)C)cc2)n(-c2ccccc2)c(=S)n(-c2ccccc2)c1=O,TGI,[1],> 100 µM
same,TGI,[2],> 100 µM
same,TGI,[3],> 100 µM
same,TGI,[4],> 100 µM
same,TGI,[5],> 100 µM
same,TGI,[6],> 100 µM
same,TGI,[7],> 100 µM
same,TGI,[8],> 100 µM
same,TGI,[9],> 100 µM
same,TGI,[10],> 100 µM
same,TGI,[11],> 100 µM
same,TGI,[12],> 100 µM
same,TGI,[13],> 100 µM
same,TGI,[14],> 100 µM
same,TGI,[15],> 100 µM
same,TGI,[16],> 100 µM
same,TGI,[17],> 100 µM
same,TGI,[18],> 100 µM
C/C=C/C(C#N)(/C=C/c1ccccc1)OP1(=O)OC(c2ccccc2)C(C)N1C (stereo not drawn),TGI,[1],45.4 µM
same,TGI,[2],68.7 µM
same,TGI,[3],28 µM
same,TGI,[4],32.1 µM
same,TGI,[5],90.1 µM
same,TGI,[6],32.9 µM
same,TGI,[7],36.1 µM
same,TGI,[8],31.6 µM
same,TGI,[9],44.7 µM
same,TGI,[10],28.8 µM
same,TGI,[12],35.5 µM
same,TGI,[13],33.3 µM
same,TGI,[20],40 µM
same,TGI,[14],38.5 µM
same,TGI,[15],55.3 µM
same,TGI,[16],39.2 µM
same,TGI,[17],32.8 µM
same,TGI,[18],34.5 µM
same,TGI,[19],32.6 µM
O=c1cc(-c2cccc(O)c2)[nH]c2cc3c(cc12)OCO3,TGI,[1],> 100 µM
same,TGI,[2],> 100 µM
same,TGI,[3],> 100 µM
same,TGI,[4],9.32 µM
same,TGI,[5],0.883 µM
same,TGI,[6],> 19.9 µM
same,TGI,[7],14.7 µM
same,TGI,[9],> 100 µM
same,TGI,[10],> 100 µM
same,TGI,[11],23.8 µM
same,TGI,[12],0.386 µM
same,TGI,[13],> 100 µM
same,TGI,[20],> 100 µM
same,TGI,[14],> 100 µM
same,TGI,[15],8.27 µM
same,TGI,[16],> 100 µM
same,TGI,[17],> 36.5 µM
same,TGI,[18],8.67 µM
same,TGI,[19],> 100 µM
O=C1C=Cc2c(Br)sc(Br)c21,TGI,[1],> 100 µM
same,TGI,[2],57.7 µM
same,TGI,[3],11.3 µM
same,TGI,[4],> 100 µM
same,TGI,[5],> 100 µM
same,TGI,[6],58.7 µM
same,TGI,[7],84.8 µM
same,TGI,[8],60 µM
same,TGI,[9],85.9 µM
same,TGI,[10],36.8 µM
same,TGI,[12],32.3 µM
same,TGI,[13],49.7 µM
same,TGI,[20],46.3 µM
same,TGI,[14],46 µM
same,TGI,[15],> 100 µM
same,TGI,[16],43.7 µM
same,TGI,[17],38.2 µM
same,TGI,[18],76.4 µM
same,TGI,[19],39.2 µM
COc1ccc2c(c1)CC[C@@H]1[C@@H]2CC[C@]2(C)C(=O)/C(=C/c3ccc(N(C)C)cc3)C[C@@H]12,TGI,[1],> 100 µM
same,TGI,[2],> 100 µM
same,TGI,[4],> 100 µM
same,TGI,[5],> 100 µM
same,TGI,[6],> 100 µM
same,TGI,[7],44.8 µM
same,TGI,[8],69 µM
same,TGI,[10],> 100 µM
same,TGI,[12],54.6 µM
same,TGI,[13],> 100 µM
same,TGI,[20],> 100 µM
same,TGI,[14],87.2 µM
same,TGI,[15],> 100 µM
same,TGI,[16],> 100 µM
same,TGI,[17],> 100 µM
same,TGI,[18],> 100 µM
same,TGI,[19],> 100 µM
Nn1c(CCCCCCCCc2nnc(COc3ccc(Cl)cc3Cl)n2N)nnc1COc1ccc(Cl)cc1Cl,TGI,[1],> 100 µM
same,TGI,[2],> 100 µM
same,TGI,[4],70 µM
same,TGI,[5],> 100 µM
same,TGI,[8],> 100 µM
same,TGI,[9],> 100 µM
same,TGI,[10],> 100 µM
same,TGI,[11],> 100 µM
same,TGI,[13],> 100 µM
same,TGI,[20],> 100 µM
same,TGI,[14],> 100 µM
same,TGI,[16],> 100 µM
same,TGI,[17],> 100 µM
same,TGI,[18],> 100 µM
same,TGI,[19],> 100 µM
O=C(C1OC1c1ccc(Cl)cc1)C12CC3CC(CC(C3)C1)C2 (stereo not drawn),TGI,[1],48.5 µM
same,TGI,[2],90.1 µM
same,TGI,[3],52.3 µM
same,TGI,[4],35.7 µM
same,TGI,[5],> 100 µM
same,TGI,[6],42.6 µM
same,TGI,[7],56.5 µM
same,TGI,[8],39 µM
same,TGI,[9],41.9 µM
same,TGI,[10],51.9 µM
same,TGI,[11],38.5 µM
same,TGI,[12],30 µM
same,TGI,[13],79.9 µM
same,TGI,[14],39.2 µM
same,TGI,[15],74 µM
same,TGI,[16],44.6 µM
same,TGI,[17],29.2 µM
same,TGI,[18],45.1 µM
same,TGI,[19],41.9 µM
C[N+](C)(CCCn1ccnc1[N+](=O)[O-])CCCn1ccnc1[N+](=O)[O-],TGI,[1],> 100 µM
same,TGI,[2],> 100 µM
same,TGI,[3],> 100 µM
same,TGI,[4],> 100 µM
same,TGI,[5],> 100 µM
same,TGI,[6],> 100 µM
same,TGI,[7],> 100 µM
same,TGI,[9],> 100 µM
same,TGI,[10],> 100 µM
same,TGI,[11],> 100 µM
same,TGI,[12],> 100 µM
same,TGI,[13],> 100 µM
same,TGI,[20],> 100 µM
same,TGI,[14],> 100 µM
same,TGI,[15],> 100 µM
same,TGI,[16],> 100 µM
same,TGI,[17],> 100 µM
same,TGI,[18],> 100 µM
same,TGI,[19],> 100 µM
CCCN(CCC)CCc1ccc(OC2=CCN(C)CC2)cc1,TGI,[1],> 100 µM
same,TGI,[2],> 100 µM
same,TGI,[3],> 100 µM
same,TGI,[4],> 100 µM
same,TGI,[5],> 100 µM
same,TGI,[6],> 100 µM
same,TGI,[7],> 100 µM
same,TGI,[9],46.4 µM
same,TGI,[10],> 100 µM
same,TGI,[11],> 100 µM
same,TGI,[12],> 100 µM
same,TGI,[13],> 100 µM
same,TGI,[20],> 100 µM
same,TGI,[14],> 100 µM
same,TGI,[15],> 100 µM
same,TGI,[16],> 100 µM
same,TGI,[17],> 100 µM
same,TGI,[18],> 100 µM
same,TGI,[19],88.3 µM
C/C(=C\CO)CC/C=C(\C)CNc1c(F)c(F)c(F)c(F)c1F,TGI,[1],94.8 µM
same,TGI,[2],> 100 µM
same,TGI,[3],> 100 µM
same,TGI,[4],67.1 µM
same,TGI,[5],> 100 µM
same,TGI,[6],65.8 µM
same,TGI,[7],68 µM
same,TGI,[9],52.3 µM
same,TGI,[10],> 100 µM
same,TGI,[11],75.1 µM
same,TGI,[12],52.8 µM
same,TGI,[13],58.5 µM
same,TGI,[20],43.8 µM
same,TGI,[14],65.3 µM
same,TGI,[15],> 100 µM
same,TGI,[16],> 100 µM
same,TGI,[17],59.2 µM
same,TGI,[18],37.9 µM
same,TGI,[19],80.8 µM
